Measurements: PubChem BioAssay (NCI)
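Interpolation was linear, between the two tested concentrations surrounding the appropriate level; five concentrations were tested over 48 hours in 96-well plates. GI50 is the concentration that inhibits growth by half. At the TGI there is no net growth.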

Assays:
Assay in all cases: NCI anticancer screen, dose series, 48 h
[1] = system: SK-OV-3 ovarian
[2] = system: T-47D breast
[3] = system: SK-MEL-5 melanoma
[4] = system: OVCAR-5 ovarian
[5] = system: SN12C renal
[6] = system: MALME-3M melanoma
[7] = system: SNB-19 CNS
[8] = system: NCI-H226 lung
[9] = system: TK-10 renal
[10] = system: HS 578T breast
[11] = system: HL-60(TB) leukemia
[12] = system: OVCAR-8 ovarian
[13] = system: M14 melanoma
[14] = system: UO-31 renal
[15] = system: SNB-75 CNS
[16] = system: NCI-H522 lung
[17] = system: RXF 393 renal
[18] = system: MDA-MB-231 breast
[19] = system: 786-0 renal
[20] = system: SF-268 CNS
[21] = system: SK-MEL-2 melanoma
[22] = system: HOP-62 NSCLC
[23] = system: OVCAR-3 ovarian
[24] = system: U251 CNS
[25] = system: SK-MEL-28 melanoma
[26] = system: K-562 leukemia
[27] = system: MOLT-4 leukemia
[28] = system: UACC-62 melanoma
[29] = system: A498 renal
[30] = system: UACC-257 melanoma
[31] = system: HOP-92 NSCLC
[32] = system: LOX IMVI melanoma
[33] = system: HT29 colon
[34] = system: SF-539 CNS
[35] = system: PC-3 prostate
[36] = system: OVCAR-4 ovarian
[37] = system: BT-549 breast
[38] = system: MCF7 breast
[39] = system: IGROV1 ovarian
[40] = system: SF-295 CNS

SMILES: O=C(Nc1cccc(Cl)c1)Nc1cccc(Cl)c1
- GI50 [1]: > 100 µM
- TGI [1]: > 100 µM
- GI50 [2]: 2.28 µM
- TGI [2]: > 100 µM
- GI50 [3]: > 100 µM
- TGI [3]: > 100 µM
- GI50 [4]: > 100 µM
- TGI [4]: > 100 µM
- GI50 [5]: > 100 µM
- TGI [5]: > 100 µM
- GI50 [6]: > 100 µM
- TGI [6]: > 100 µM
- GI50 [7]: > 42.9 µM
- TGI [7]: > 100 µM
- GI50 [8]: > 100 µM
- TGI [8]: > 100 µM
- GI50 [9]: > 100 µM
- TGI [9]: > 100 µM
- GI50 [10]: > 100 µM
- TGI [10]: > 100 µM
- GI50 [11]: 5.02 µM
- TGI [11]: > 100 µM
- GI50 [12]: 15.3 µM
- TGI [12]: > 100 µM
- GI50 [13]: > 100 µM
- TGI [13]: > 100 µM
- GI50 [14]: > 26 µM
- TGI [14]: > 100 µM
- GI50 [15]: 2.49 µM
- TGI [15]: 44.3 µM
- GI50 [16]: 2.04 µM
- TGI [16]: > 100 µM
- GI50 [17]: 24.1 µM
- TGI [17]: > 92.8 µM
- GI50 [18]: 18.2 µM
- TGI [18]: > 100 µM
- GI50 [19]: 36.7 µM
- TGI [19]: > 100 µM
- GI50 [20]: > 81.6 µM
- TGI [20]: > 100 µM
- GI50 [21]: > 21.5 µM
- TGI [21]: > 100 µM
- GI50 [22]: 21.9 µM
- TGI [22]: > 88.8 µM
- GI50 [23]: 2.92 µM
- TGI [23]: > 100 µM
- GI50 [24]: 7.05 µM
- TGI [24]: > 100 µM
- GI50 [25]: > 100 µM
- TGI [25]: > 100 µM
- GI50 [26]: 3.23 µM
- TGI [26]: > 100 µM
- GI50 [27]: 23.8 µM
- TGI [27]: > 100 µM
- GI50 [28]: 3.69 µM
- TGI [28]: > 100 µM
- GI50 [29]: 2.87 µM
- TGI [29]: > 100 µM
- GI50 [30]: > 100 µM
- TGI [30]: > 100 µM
- GI50 [31]: 2.11 µM
- TGI [31]: > 100 µM
- GI50 [32]: 32 µM
- TGI [32]: > 100 µM
- GI50 [33]: 2.26 µM
- TGI [33]: > 100 µM
- GI50 [34]: 49.1 µM
- TGI [34]: > 100 µM
- GI50 [35]: 2.54 µM
- TGI [35]: > 100 µM
- GI50 [36]: 1.99 µM
- TGI [36]: > 100 µM
- GI50 [37]: > 100 µM
- TGI [37]: > 100 µM
- GI50 [38]: 5.79 µM
- TGI [38]: > 100 µM
- GI50 [39]: 37.8 µM
- TGI [39]: > 100 µM
- GI50 [40]: 3.01 µM
- TGI [40]: > 100 µM
